A short description of data set [1]: Safety: adverse events in the dose-escalation study in healthy subjects. How it is done: (§1) A dose-escalation study was performed in five consecutive periods (7 days wash-out) in 15 healthy subjects (5 females, 20-25, BMI 19.4-27.6 kg/m2). The racemic analytes were measured using validated LC-MS/MS methods according to Hasan et al., 2017 (Hasan et al., Quantitative chiral and achiral determination of ketamine and its metabolites by LC-MS/MS in human serum, urine and fecal samples, Journal of Pharmaceutical and Biomedical Analysis, 2017, 139, 87-97).
(§2) In addition, 5 mg ketamine (in form of ketamine hydrochloride) solution was intravenously administered within 30 min in fasting state.
An adverse event (AE) therefore can be any unfavorable and unintended sign including an abnormal laboratory (or vital, ECG etc.) finding, symptom or disease temporally associated with the use of a medicinal (investigational) product, whether or not related to the medicinal (investigational) product.
A serious adverse event (SAE) is defined as any untoward medical occurrence that at any dose • results in death, or • is life-threatening, or • requires hospitalization or prolongation of existing hospitalization, or • results in persistent or significant disability/incapacity, or • is a congenital anomaly/birth defect
Adverse events (AE) were detected both by a standardized questionnaire on tolerability and by querying the subjects at the scheduled times. Furthermore, the subjects were asked to report any AE spontaneously.

Data set [2] relates to patients with major depressive disorder and bipolar depression. The note with it: single intravenous 40-minute infusion; lasting 1 week; Zarate et al., 2012; cited from earlier work.
Data set [3] can be described thus: Dose-escalation pharmacokinetics and metabolism study in 15 healthy subjects (LC-MS/MS). Here is the method:
as §1, §2
The pharmacokinetics of ketamine and its metabolites norketamine and hydroxynorketamine were measured and depicted in the following table 1. AUC stands for the area under the curve, Cmax stands for the maximum plasma concentration, Tmax stands for the time to Cmax, F stands for absolute bioavailability, T1/2 stands for the apparent terminal half-life, AUCNK/K for the ratio of AUCNK to AUCK and AUCHNK/K for the ratio of AUCHNK to AUCK.
The maximum concentration (Cmax) and the time of maximum concentration (Tmax) were obtained directly from the measured concentration-time curves.
The area under the concentrations-time curve (AUC) was calculated with the measured data points from the time of administration until the last quantifiable concentration by the trapezoidal formula. The AUC was assessed up to the last sampling time above the limit of quantification and is extrapolated to infinity to obtain the AUC values.
Apparent Terminal half-life (T1/2) was calculated by the following equation T1/2=ln 2/λz.
The terminal elimination rate constant (λz) was evaluated from the terminal slope by log-linear regression analysis.
The absolute bioavailability (F) was calculated by the following equation Fabs=AUCoral/AUCiv×doseiv/doseoral. 4.2 Safety

A further data set deals with mice. The note with it: Zanos et al., 2016, cited from earlier work.
Where [4] appears, read: Treatment A ketamine 5 mg i.v., AEs certainly, probably or possibly related.
Setting [5] is: 5 mg ketamine i.v. infusion (30 min), fasting.

Structures are written as SMILES.

For `CNC1(c2ccccc2Cl)CCCCC1=O` (racemic) [ketamine, 2-(2-chlorophenyl)-2-(methylamino) cyclohexan-1-one], the “Number of AEs” value in data set [1] (Treatment A (ketamine 5 mg i.v.)) amounted to 10. For the same compound, in data set [1] (setting [4]), the “Number of subjects reporting dizziness (nervous system disorders)” value turned out to be 6, the “Number of subjects reporting palpitation (cardiac disorders)” value worked out at 1, the “Number of subjects reporting tachycardia (cardiac disorder)” value was determined as 1 and the “Percent of subjects reporting dizziness (nervous system disorders)” value is 40%. In addition, in data set [1] (setting [4]), the “Percent of subjects reporting palpitation (cardiac disorders)” value is given as 7% and the “Percent of subjects reporting tachycardia (cardiac disorder)” value was found to be 7%. Besides, in data set [2], the “improvement in patients with major depressive disorder and bipolar depression” value is on record as “rapid improvement”. In data set [3] (setting [5]), this compound had a CL/F of ketamine of 1.67 ± 0.380 L/min, a CLM of ketamine of 268 ± 75.6 mL/min and a CLintestinal of ketamine of 0.046 ± 0.097 mL/min. Moreover, in data set [3] (both, human, plasma, iv, 5 mg), the AUC was determined as 52.3 ± 12.2 ng·h/mL, the CL renal was determined as 33.6 ± 36.5 mL/min, the peak level (Cmax) was 29.9 ± 8.48 ng/mL and the MRT is 4.68 ± 2.01 h. In data set [3] (both, human, plasma, iv, 5 mg), this compound showed a Vd of 6.58 ± 3.07 L/kg and a half-life of 5.89 ± 2.61 h.

Regarding `N[C@@]1(c2ccccc2Cl)CCC[C@@H](O)C1=O` [(2R,6R)-hydroxynorketamine], the ketamine-related side effects result in the data set on mice is given as “lack ketamine-related side effects”. For the same compound, the antidepressant-related actions entry in the data set on mice (independent of NMDR-inhibition) is given as “exerts antidepressant-related actions”.

The values above are taken from patent US11723883B2, “Hydroxynorketamine for the use in the treatment of depression” (DEVELCO PHARMA SCHWEIZ AG, priority 2017, dated 2023).
